The values that follow come from patent publication US20140094413A1, “HEPATOCYTE GROWTH FACTOR (HGF) MIMICS AS THERAPEUTIC AGENTS” (WASHINGTON STATE UNIVERSITY, priority 2012, published 2014).

Test [1] deals with hippocampal neurons transfected with shMet. The test is described as follows: Spinogenesis after c-Met knock-down with shRNA. The class given is cell-based, rat. To be noted: HGF 10 ng/ml, 48 hours. The text has this: Neurons were transfected with mRFP-β-actin on day in vitro 6 (DIV6) using LipofectAMINE™ 2000 (Invitrogen) according to the manufacturer's protocol. This protocol yielded the desired 3-5% transfection efficiency thus enabling the visualization of individual neurons. Higher efficiencies obscured the dendritic arbor of individual neurons. Expression of fluorescently tagged actin allowed clear visualization of dendritic spines, as dendritic spines are enriched in actin. On DIV7 the cells were treated with vehicle (H20) or peptides (as described in the text) added to media. On DIV12 the neurons were fixed (4% paraformaldehyde, 3% sucrose, 60 mM PIPES, 25 mM HEPES, 5 mM EGTA, 1 mM MgCl2, pH 7.4) for 20 min at room temperature and mounted. Slides were dried for at least 20 hours at 4° C. and fluorescent images were obtained with Slidebook 4.2 Digital Microscopy Software driving an Olympus IX81 inverted confocal microscope with a 60× oil immersion lens, NA 1.4 and resolution 0.280 μm Dendritic spine density was measured on primary and secondary dendrites at a distance of at least 150 μm from the soma. Five 50 μm long segments of dendrite from at least 10 neurons per data point were analyzed for each data point reported. Each experiment was repeated at least three times using independent culture preparations. Dendrite length was determined using the National Institutes of Health's Image J 1.41o program (NIH, Bethesda, Md.) and the neurite tracing program Neuron J (Meijering, Jacob et al. 2004) Spines were manually counted.
A target sequence for c-Met was designed using RNAi central design program (see the website located at cancan.cshl.edu/). […]. The shRNA was transfected into cells using the lipofectamine method described above. Verification of receptor knockdown was done by creating a c-Met-6-Myc tagged gene product using the Gateway cloning system (Invitrogen). The Met protein coding sequence was cloned from rat whole brain cDNA using primers obtained from Integrated DNA Technologies, Inc. The amplified product was gel purified and a band corresponding to […] band excised and cloned into a PCAGGS-6-Myc destination vector (Gateway).
To irrefutably confirm that the AngIV analogues act via the HGF/c-met system an shRNA for c-Met was employed to knock-down the receptor. Dissociated hippocampal neurons were transfected with mRFP-β-actin and shMet RNA and receptor knock-down was allowed to take place for 48 hours prior to stimulating with 0.5 μg (per well) HGF (10 ng/ml), Dihexa or Nle1-AngIV (both at 10^−12M). Longer exposure appeared to be detrimental or toxic to the neurons. Effective c-Met receptor knock-down was verified by transfecting human embryonic kidney (HEK) cells with (0.1 μg) 6-Myc-tagged c-Met, (0.1 μg) shMet or mRFP-β-actin alone. Successful knockdown was confirmed by immunoblotting for Myc tagged c-met using an anti-Myc antibody (FIG. 19).

Another test has as its system CA1 hippocampal neurons. As to the kind of experiment: Spinogenesis in organotypic hippocampal slice cultures. The class given is cell-based, rat. The method, then: (§1) Hippocampi from P4 Sprague Dawley rats were cultured as previously described (Wayman, Impey et al. 2006). Briefly, 400 μm slices were cultured on (Milipore, Billerica, Mass.) for 3 days after which they were biolistically transfected with tomato fluorescent protein (TIT) using a Helios Gen Gun (BioRad, Hercules, Calif.), according to the manufacturer's protocol, to visualize dendritic arbors. Following a 24 hour recovery period slices were stimulated with vehicle (H2O), […] Nle1-AngIV or Dihexa for 2 days. Slices were fixed and mounted. Hippocampal CA1 neuronal processes were imaged and measured as described above.
as §1, with “(TFP)” for “(TIT)”, “Gene” for “Gen”, “with” for “with vehicle (H2O),”

Setting [2] is: neurons transfected with mRFP-β-actin alone, Dihexa or Nle1-AngIV 10^−12M.
[3] abbreviates: neurons transfected with mRFP-β-actin and shMet, Dihexa or Nle1-AngIV 10^−12 M.

Several values for one entry are separate records, joined by “and”; a condition that tells them apart may be missing. Identical values can stand only once. Where a SMILES comes first, the peptide text is derived from it. [ ]: non-standard residue; d: D form. The star is where a group is joined. Nle = CCCC[C@H](N)C(=O)O; Hexanoyl = CCCCCC(=O)*; Ahx = NCCCCCC(=O)O

For `CCCCCC(=O)N[C@@H](Cc1ccc(O)cc1)C(=O)N[C@H](C(=O)NCCCCCC(N)=O)[C@@H](C)CC` [Dihexa, N-hexanoic-Tyr-Ile-(6)-aminohexanoic amide] (Hexanoyl-Tyr-Ile-[Ahx]-NH2), the “Mean spine numbers per 50 μm dendrite length” value was 21.8 spines per 50 μm dendrite leng in test [1] (setting [2]) and 12.0 spines per 50 μm dendrite leng in test [1] (setting [3]). Besides, the “Spines per 50 μm dendrite length, CA1 neurons” value in the test with CA1 hippocampal neurons (10^−12 M, 2 days) is 11 spines per 50 μm dendrite length and 15.0 spines per 50 μm dendrite length.
With `CCCC[C@H](N)C(=O)N[C@@H](Cc1ccc(O)cc1)C(=O)N[C@H](C(=O)N[C@@H](Cc1c[nH]cn1)C(=O)N1CCC[C@H]1C(=O)N[C@@H](Cc1ccccc1)C(=O)O)[C@@H](C)CC` [Nle1-AngIV, reference compound] (H-[Nle]YIHPF-OH; N-terminus and C-terminus assumed), the “Mean spine numbers per 50 μm dendrite length” value in test [1] (setting [2]) was 20.0 spines per 50 μm dendrite leng; in test [1] (setting [3]) it was 12.1 spines per 50 μm dendrite leng. The “Spines per 50 μm dendrite length, CA1 neurons” value in the test with CA1 hippocampal neurons (10^−12 M, 2 days) is 11 spines per 50 μm dendrite length.
Consider “HGF: Hepatocyte growth factor, recombinant, purchased from R&D Systems”, for which the figures for the “Mean spine numbers per 50 μm dendrite length” value in test [1] (setting [2]) and in test [1] (setting [3]) were 20.6 spines per 50 μm dendrite leng and 12.4 spines per 50 μm dendrite leng, respectively. Moreover, in the test with CA1 hippocampal neurons (HGF 10 ng/ml, 48 hours), the “Spines per 50 μm dendrite length, CA1 neurons” value was 18.5 spines per 50 μm dendrite length.
